Test results taken from patent EP4745118A1, “HYDROXAMIC ACID COMPOUND OR PHARMACEUTICALLY ACCEPTABLE SALT THEREOF, AND USE THEREOF AND PREPARATION METHOD THEREFOR” (priority 2023, dated 2025).
In brackets after ≈: the same amount, converted by molar mass. Read-outs that look alike come from different tables or passages of the source.

Tests used:
Assay in all cases: In vitro antibacterial activity, agar dilution method (MIC)
Type in all cases: cell-based
Enterobacter cloacae = Enterobacter cloacae CDC1000654 (NDM-1-producing); agar dilution, 35°C, 18 hours; read-out: MIC
Protocol: According to the relevant operating procedures of the Clinical Laboratory Standards Institute (CLSI) in the United States, an antimicrobial susceptibility testing was conducted using the agar dilution method. […] The agar was allowed to solidify and set aside for later use.
(§1) The test bacteria were propagated in broth and adjusted to a turbidity of 0.5 McFarland (approximately 1-2 × 10^8 CFU/mL) using a turbidimeter before inoculation. The 0.5 McFarland bacterial solution was then diluted 10-fold in broth (approximately 1-2 × 10^7 CFU/mL). A multipoint inoculator was used to inoculate the above bacterial solution onto a series of plates containing different concentrations of drugs (with an inoculation amount of approximately 10^4 CFU per inoculation site). After incubation at a constant temperature of 35°C for 18 hours, results were observed. The minimum concentration of drugs contained in sterile growth plates was determined as the Minimal Inhibitory Concentration (MIC).

Shigella flexneri = settings: ATCC12022, Shigella flexneri ATCC 12022, 35°C, 18 hours, read-out: MIC
Protocol: According to the relevant operating procedures of the Clinical Laboratory Standards Institute (CLSI) in the United States, an antimicrobial susceptibility testing was conducted using the agar dilution method. A 1920 µg/mL stock solution was serially diluted twofold with sterile water to obtain dilutions of 960, 480, 240, 120, 60, 30, 15, 7.5, 3.75, 1.88, 0.94, 0.47 µg/mL, and 1 mL of the dilution was taken respectively from the dilutions with different concentrations and added to a Petri dish, to which 14 mL of melted MH agar medium was added and mixed thoroughly, and the final concentration of the drug in the petri dish is 128, 64, 32, 16, 8, 4, 2, 1, 0.5, 0.25, 0.12, 0.06, and 0.03 µ g/mL, respectively. The agar was allowed to solidify and set aside for later use.
as §1

Proteus mirabilis = settings: ATCC49565; Proteus mirabilis ATCC 49565; agar dilution, 35°C, 18 hours; read-out: MIC
Protocol: (§2) According to the relevant operating procedures of the Clinical Laboratory Standards Institute (CLSI) in the United States, an antimicrobial susceptibility testing was conducted using the agar dilution method. […]. The agar was allowed to solidify and set aside for later use.
as §1

Enterobacter aerogenes = settings: Klebsiella aerogenes, ATCC13048; Enterobacter aerogenes ATCC 13048; agar dilution, 35°C, 18 hours; read-out: MIC
Protocol: as §2, §1

Pseudomonas aeruginosa = Pseudomonas aeruginosa PAO1; agar dilution, 35°C, 18 hours; read-out: MIC
Protocol: as §2, §1

Proteus vulgaris = settings: ATCC29905; Proteus vulgaris ATCC 29905; agar dilution, 35°C, 18 hours; read-out: MIC
Protocol: as §2, §1

Citrobacter freundii = settings: ATCC43864; Citrobacter freundii ATCC 43864; agar dilution, 35°C, 18 hours; read-out: MIC
Protocol: as §2, §1

Serratia marcescens = settings: ATCC21074; Serratia marcescens ATCC 21074; agar dilution, 35°C, 18 hours; read-out: MIC
Protocol: as §2, §1

Pantoea agglomerans = settings: ATCC27993; Pantoea agglomerans ATCC 27993; agar dilution, 35°C, 18 hours; read-out: MIC
Protocol: as §2, §1

Klebsiella pneumoniae = settings: Klebsiella pneumoniae, agar dilution, 35°C, 18 hours
Protocol: as §2, §1

Escherichia coli = settings: Escherichia coli, agar dilution, 35°C
Protocol: as §2, §1

[1] = 18 h, Klebsiella pneumoniae 09-20 (mcr-1), read-out: MIC
[2] = 18 h, Klebsiella pneumoniae 17-R27 (CRE), read-out: MIC
[3] = ATCC700603, 18 h, Klebsiella pneumoniae ATCC 700603 (ESBLs-producing), read-out: MIC
[4] = ATCCBAA2146, 18 h, Klebsiella pneumoniae ATCC BAA-2146 (CRE, NDM-1-producing), read-out: MIC
[5] = 18 h, Escherichia coli 13-43 (mcr-1), 18 hours, read-out: MIC
[6] = 18 h, Escherichia coli 17-R28 (CRE, NDM-1-producing), 18 hours, read-out: MIC
[7] = ATCC2469, 18 h, Escherichia coli ATCC 2469 (CRE, NDM-1-producing), 18 hours, read-out: MIC
[8] = ATCC35218, 18 h, Escherichia coli ATCC 35218 (ESBLs-producing), 18 hours, read-out: MIC
[9] = 18 h, Klebsiella pneumoniae 18-8 (ESBLs-producing), read-out: MIC
[10] = 18 h, Escherichia coli 17-R28 (CRE, NDM-1-producing)

SMILES | MIC (Enterobacter cloacae) | MIC (Shigella flexneri) | MIC (Proteus mirabilis) | MIC (Enterobacter aerogenes) | MIC (Pseudomonas aeruginosa) | MIC (Proteus vulgaris) | MIC (Citrobacter freundii) | MIC (Serratia marcescens) | MIC (Pantoea agglomerans) | MIC (Klebsiella pneumoniae; [1]) | MIC (Klebsiella pneumoniae; [2]) | MIC (Klebsiella pneumoniae; [3]) | MIC (Klebsiella pneumoniae; [4]) | MIC (Escherichia coli; [5]) | MIC (Escherichia coli; [6]) | MIC (Escherichia coli; [7]) | MIC (Escherichia coli; [8]) | MIC (Klebsiella pneumoniae; [9]) | MIC (Klebsiella pneumoniae; ATCCBAA2146, 18 h, Klebsiella pneumoniae ATCC BAA-2146 (CRE, NDM-1-producing)) | MIC (Escherichia coli; [10])
COCC1CC1C#CC#Cc1ccc(C(=O)N[C@H](C(=O)NO)C(C)(C)N)cc1 (stereo partly shown) [Formula I] | 4 µg/mL | 0.25 µg/mL | 2 µg/mL | 2 µg/mL | 2 µg/mL | 0.5 µg/mL | 0.5 µg/mL | 0.5 µg/mL | 4 µg/mL | 2 µg/mL | 2 µg/mL | 4 µg/mL | 8 µg/mL | 0.5 µg/mL | 0.5 µg/mL | 0.5 µg/mL | 0.5 µg/mL |  |  | 
NCC[C@H](O)C(=O)N[C@@H]1C[C@H](N)[C@@H](O[C@H]2O[C@H](CN)[C@@H](O)[C@H](O)[C@H]2O)[C@H](O)[C@H]1O[C@H]1O[C@H](CO)[C@@H](O)[C@H](N)[C@H]1O [Amikacin] | > 128 µg/mL | 4 µg/mL (≈ 6.83 µM) | 2 µg/mL (≈ 3.42 µM) | 1 µg/mL (≈ 1.71 µM) | 2 µg/mL (≈ 3.42 µM) | 1 µg/mL (≈ 1.71 µM) | 2 µg/mL (≈ 3.42 µM) | 2 µg/mL (≈ 3.42 µM) | 2 µg/mL (≈ 3.42 µM) | > 128 µg/mL | 2 µg/mL (≈ 3.42 µM) | 1 µg/mL (≈ 1.71 µM) | > 128 µg/mL | 4 µg/mL (≈ 6.83 µM) | > 128 µg/mL | > 128 µg/mL | 4 µg/mL (≈ 6.83 µM) | 1 µg/mL (≈ 1.71 µM) |  | 
CO/N=C(\C(=O)N[C@@H]1C(=O)N2C(C(=O)[O-])=C(C[N+]3(C)CCCC3)CS[C@H]12)c1csc(N)n1 [Cefepime] |  | ≤ 0.03 µg/mL | 0.06 µg/mL (≈ 0.125 µM) | 0.06 µg/mL (≈ 0.125 µM) | 2 µg/mL (≈ 4.16 µM) | ≤ 0.03 µg/mL | ≤ 0.03 µg/mL | 0.06 µg/mL (≈ 0.125 µM) | 0.06 µg/mL (≈ 0.125 µM) | 1 µg/mL (≈ 2.08 µM) | 0.5 µg/mL (≈ 1.04 µM) | 1 µg/mL (≈ 2.08 µM) |  | 2 µg/mL (≈ 4.16 µM) |  | 64 µg/mL (≈ 133 µM) | ≤ 0.03 µg/mL | 1 µg/mL (≈ 2.08 µM) | 128 µg/mL (≈ 266 µM) | > 128 µg/mL
C[C@@H](O)[C@H]1C(=O)N2C(C(=O)O)=C(S[C@@H]3CN[C@H](C(=O)N(C)C)C3)[C@H](C)[C@H]12 [Meropenem] | 4 µg/mL (≈ 10.4 µM) | ≤ 0.03 µg/mL | 0.06 µg/mL (≈ 0.156 µM) | 0.06 µg/mL (≈ 0.156 µM) | 2 µg/mL (≈ 5.22 µM) | ≤ 0.03 µg/mL | ≤ 0.03 µg/mL | 0.06 µg/mL (≈ 0.156 µM) | ≤ 0.03 µg/mL | ≤ 0.03 µg/mL | 0.25 µg/mL (≈ 0.652 µM) | ≤ 0.03 µg/mL | 32 µg/mL (≈ 83.4 µM) | ≤ 0.03 µg/mL |  | 8 µg/mL (≈ 20.9 µM) | ≤ 0.03 µg/mL | ≤ 0.03 µg/mL |  | 128 µg/mL (≈ 334 µM)
